Patent US7521478B2, “Total synthesis of myriaporones” (Pharma Mar, S.A.U., priority 2002, dated 2009)

Experiments:
Assay type in all cases: cell-based
DU-145 = test: Inhibition of cell growth by colorimetric SRB assay, DU-145; settings: Homo sapiens, DU-145, 48 hours exposure; for CC50: cell killing, read-out: LC50 (the source's name); for IC (total growth inhibition): read-out: TGI
Description: (§1) The finality of these assays is to interrupt the growth of a “in vitro” tumor cell culture by means a continued exhibition of the cells to the sample to be testing.
(§2) Inhibition of Cell Growth by Colorimetric Assay.
(§3) A colorimetric type of assay, using sulforhodamine B (SRB) reaction has been adapted for a quantitative measurement of cell growth and viability (following the technique described by P. A. Skehan, et al., J. Natl. CancerInst. 1990, 82, 1107-1112).
(§4) This form of assay employs 96 well cell culture microplates of 9 mm diameter (T. Mosmann et al., J. of Immuological Methods 1983, 65, 55-63; G. T. Faircloth et al., J. of Tissue and Culture Methods 1988, 11, 201-205). Most of the cell lines are obtained from American Type Culture Collection (ATCC) derived from different human cancer types.
(§5) Cells are maintained in RPMI 1640 10% FBS, supplemented with 0.1 g/L penicillin and 0.1 g/L streptomycin sulfate and then incubated at 37° C., 5% CO2 and 98% humidity. For the experiments, cells were harvested from subconfluent cultures using trypsin and resuspended in fresh medium before plating.
(§6) Cells are seeded in 96 well microtiter plates, at 5×10^3 cells per well in aliquots of 195 μL medium, and they are allowed to attach to the plate surface by growing in drug free medium for 18 hours. Afterward, samples are added in aliquots of 5 μL in a ranging from 10 to 10^−8 μg/mL, dissolved in DMSO/EtOH/PBS (0.5:0.5:99). After 48 hours exposure, the antitumor effect are measured by the SRB methodology: cells are fixed by adding 50 μL of cold 50% (wt/vol) trichloroacetic acid (TCA) and incubated for 60 minutes at 4° C. Plates are washed with deionizer water and dried. One hundred μl of SRB solution (0.4% wt/vol in 1% acetic acid) is added to each microliter well and incubated for 10 minutes at room temperature. Unbound SRB is removed by washing with 1% acetic acid. Plates are air dried and bound stain is solubilized with Tris buffer. Optical densities are read on a automated spectrophotometric plate reader at a single wavelength of 490 nm.
(§7) The values for mean +/−SD of data from triplicate wells are calculated. Some parameters for cellular responses can be calculated: GI=growth inhibition, TGI=total growth inhibition (cytostatic effect) and LC=cell killing (cytotoxic effect).

LNCaP = test: Inhibition of cell growth by colorimetric SRB assay, LN-caP; settings: Homo sapiens, LN-caP, 48 hours exposure; for CC50: cell killing, read-out: LC50 (the source's name); for IC (total growth inhibition): read-out: TGI
Description: as §1, §2, §3, §4, §5, §6, §7

IGROV = test: Inhibition of cell growth by colorimetric SRB assay, IGROV; settings: Homo sapiens, 48 hours exposure; for CC50: cell killing, read-out: LC50 (the source's name); for IC (total growth inhibition): read-out: TGI
Description: as §1, §2, §3, §4, §5, §6, §7

IGROV-ET = test: Inhibition of cell growth by colorimetric SRB assay, IGROV-ET; settings: Homo sapiens, IGROV-ET, 48 hours exposure; for CC50: cell killing, read-out: LC50 (the source's name); for IC (total growth inhibition): read-out: TGI
Description: as §1, §2, §3, §4, §5, §6, §7

SK-BR-3 = test: Inhibition of cell growth by colorimetric SRB assay, SK-BR-3; settings: SK-BR-3, 48 hours exposure; for GI50 / CC50: Homo sapiens; for CC50: cell killing, read-out: LC50 (the source's name); for TGI: total growth inhibition
Description: as §1, §2, §3, §4, §5, §6, §7

SK-MEL-28 = test: Inhibition of cell growth by colorimetric SRB assay, MEL-28; settings: Homo sapiens, SK-MEL-28, MEL-28, 48 hours exposure; for CC50: cell killing, read-out: LC50 (the source's name); for IC (total growth inhibition): read-out: TGI
Description: as §1, §2, §3, §4, §5, §6, §7

A-549 = test: Inhibition of cell growth by colorimetric SRB assay, A-549; settings: Homo sapiens, A549, A-549, 48 hours exposure; for CC50: cell killing, read-out: LC50 (the source's name); for IC (total growth inhibition): read-out: TGI
Description: as §1, §2, §3, §4, §5, §6, §7

K-562 = test: Inhibition of cell growth by colorimetric SRB assay, K-562; settings: Homo sapiens, K562, K-562, 48 hours exposure; for CC50: cell killing, read-out: LC50 (the source's name); for IC (total growth inhibition): read-out: TGI
Description: as §1, §2, §3, §4, §5, §6, §7

PANC-1 = test: Inhibition of cell growth by colorimetric SRB assay, PANC-1; settings: Homo sapiens, PANC-1, 48 hours exposure; for CC50: cell killing, read-out: LC50 (the source's name); for IC (total growth inhibition): read-out: TGI
Description: as §1, §2, §3, §4, §5, §6, §7

HT-29 = test: Inhibition of cell growth by colorimetric SRB assay, HT-29; settings: Homo sapiens, HT-29, 48 hours exposure; for CC50: cell killing, read-out: LC50 (the source's name); for IC (total growth inhibition): read-out: TGI
Description: as §1, §2, §3, §4, §5, §6, §7

LoVo = test: Inhibition of cell growth by colorimetric SRB assay, LOVO; settings: Homo sapiens, LOVO, 48 hours exposure; for LC50: cell killing, read-out: LC50; for IC (total growth inhibition): read-out: TGI
Description: as §1, §2, §3, §4, §5, §6, §7

LoVo-Dox = test: Inhibition of cell growth by colorimetric SRB assay, LOVO-DOX; settings: Homo sapiens, LOVO-DOX, 48 hours exposure; for LC50 (concentration for 50% cell killing): read-out: LC50; for IC (total growth inhibition): read-out: TGI
Description: as §1, §2, §3, §4, §5, §6, §7

HeLa = test: Inhibition of cell growth by colorimetric SRB assay, HELA; settings: Homo sapiens, HELA, 48 hours exposure; for CC50: cell killing, read-out: LC50 (the source's name); for IC (total growth inhibition): read-out: TGI
Description: as §1, §2, §3, §4, §5, §6, §7

HeLa-APL = test: Inhibition of cell growth by colorimetric SRB assay, HELA-APL; settings: Homo sapiens; for CC50: HELA-APL, 48 hours exposure, cell killing, read-out: LC50 (the source's name)
Description: as §1, §2, §3, §4, §5, §6, §7

C/C=C\[C@H](C)[C@H]1OC1(C)[C@@H](O[Si](C)(C)C(C)(C)C)[C@@H](CO)C(=O)[C@H](CO)[C@@H](O)CC(=O)CC (stereo partly drawn) [20a + 20c]
GI50 (DU-145): 10.7 µM
CC50 (DU-145): ≥ 20.5 µM
IC (total growth inhibition) (DU-145): 20.5 µM
GI50 (LNCaP): 8.42 µM
CC50 (LNCaP): ≥ 20.5 µM
IC (total growth inhibition) (LNCaP): 20.5 µM
GI50 (IGROV): 14.1 µM
CC50 (IGROV): ≥ 20.5 µM
IC (total growth inhibition) (IGROV): 20.5 µM
GI50 (IGROV-ET): 13.8 µM
CC50 (IGROV-ET): ≥ 20.5 µM
IC (total growth inhibition) (IGROV-ET): 20.5 µM
GI50 (SK-BR-3): 11.1 µM
CC50 (SK-BR-3): ≥ 20.5 µM
TGI (SK-BR-3): 2.05E−05 Molar
GI50 (SK-MEL-28): 16.3 µM
CC50 (SK-MEL-28): ≥ 20.5 µM
IC (total growth inhibition) (SK-MEL-28): 20.5 µM
GI50 (A-549): ≥ 20.5 µM
CC50 (A-549): ≥ 20.5 µM
IC (total growth inhibition) (A-549): 20.5 µM
GI50 (K-562): 7.75 µM
CC50 (K-562): ≥ 20.5 µM
IC (total growth inhibition) (K-562): 20.5 µM
GI50 (PANC-1): 14 µM
CC50 (PANC-1): ≥ 20.5 µM
IC (total growth inhibition) (PANC-1): 20.5 µM
GI50 (HT-29): 17.1 µM
CC50 (HT-29): ≥ 20.5 µM
IC (total growth inhibition) (HT-29): 20.5 µM
GI50 (LoVo): 10.4 µM
LC50 (LoVo): ≥ 20.5 µM
IC (total growth inhibition) (LoVo): 20.5 µM
GI50 (LoVo-Dox): 85.1 µM
LC50 (concentration for 50% cell killing) (LoVo-Dox): ≥ 20.5 µM
IC (total growth inhibition) (LoVo-Dox): 20.5 µM
GI50 (HeLa): 13.3 µM
CC50 (HeLa): ≥ 20.5 µM
IC (total growth inhibition) (HeLa): 20.5 µM
GI50 (HeLa-APL; 48 h): 12.9 µM
CC50 (HeLa-APL): ≥ 20.5 µM

C/C=C\[C@H](C)[C@H]1OC1(C)[C@@H](O[Si](C)(C)C(C)(C)C)[C@@H](CO)C(=O)[C@H](CO)[C@H](O)CC(=O)CC (stereo partly drawn) [20b + 20d]
GI50 (DU-145): 20.5 µM
CC50 (DU-145): 20.5 µM
IC (total growth inhibition) (DU-145): 20.5 µM
GI50 (LNCaP): 12.4 µM
CC50 (LNCaP): 20.5 µM
IC (total growth inhibition) (LNCaP): 20.5 µM
GI50 (IGROV): 20.5 µM
CC50 (IGROV): 20.5 µM
IC (total growth inhibition) (IGROV): 20.5 µM
GI50 (IGROV-ET): 20.5 µM
CC50 (IGROV-ET): 20.5 µM
IC (total growth inhibition) (IGROV-ET): 20.5 µM
GI50 (SK-BR-3): 14.9 µM
CC50 (SK-BR-3): 20.5 µM
TGI (SK-BR-3): 2.05E−05 Molar
GI50 (SK-MEL-28): 20.5 µM
CC50 (SK-MEL-28): 20.5 µM
IC (total growth inhibition) (SK-MEL-28): 20.5 µM
GI50 (A-549): 20.5 µM
CC50 (A-549): 20.5 µM
IC (total growth inhibition) (A-549): 20.5 µM
GI50 (K-562): 10.3 µM
CC50 (K-562): 20.5 µM
IC (total growth inhibition) (K-562): 20.5 µM
GI50 (PANC-1): 9.37 µM
CC50 (PANC-1): 20.5 µM
IC (total growth inhibition) (PANC-1): 20.5 µM
GI50 (HT-29): 20.5 µM
CC50 (HT-29): 20.5 µM
IC (total growth inhibition) (HT-29): 20.5 µM
GI50 (LoVo): 20.5 µM
LC50 (LoVo): 20.5 µM
IC (total growth inhibition) (LoVo): 20.5 µM
GI50 (LoVo-Dox): 20.5 µM
LC50 (concentration for 50% cell killing) (LoVo-Dox): 20.5 µM
IC (total growth inhibition) (LoVo-Dox): 20.5 µM
GI50 (HeLa): 20.5 µM
CC50 (HeLa): 20.5 µM
IC (total growth inhibition) (HeLa): 20.5 µM
CC50 (HeLa-APL): 20.5 µM
